According to PMC9501129 (Pharmaceutics, 2022):
Where two headings read alike, the source gives them in different places.

How the values were obtained:
[1] = system: simian/human immunodeficiency virus (SHIV); settings: long-acting CAB; cited from earlier work
[2] = Maternal plasma drug concentration in mouse pregnancy model (HPLC-MSMS); format: in vivo, C57BL/6J mice; settings: pregnant mice, mean (SD), n=2; for concentration at 24 h / Cmax at 1 h: female, C57BL/6J, mouse, plasma; for concentration at 24 h: oral, read-out: Plasma Concentration 24 h (Cmin)
Description: (§1) All animal experiments were approved by the University Health Network Animal Use Committee (protocol #2575) and performed according to the policies and guidelines of the Canadian Council on Animal Care. C57BL/6J mice bred in-house (original breeders from Jackson Laboratory RRID:IMSR JAX:000664) were maintained under a 12-h light/dark cycle, with ad libitum access to food and water. Animals were acclimated to their surroundings for 1 week prior to experiment initiation. Males were isolated for 7 days prior to mating. Female mice (7–12 weeks of age) were mated with males at a ratio of 2:1. Presence of vaginal plug was denoted as gestational day 0.5 (GD0.5). Pregnancy was confirmed by weight gain of >1.5 g on GD9.5 and >3 g on GD13.5. […] The equivalent mouse mg/kg dose was calculated based on the human dose divided by an assumed average human weight of 60 kg. The dose of TDF/FTC was kept constant across the different dosages of BIC and CAB. On GD15.5, mice underwent saphenous bleed 24 h after the GD14.5 dose administration (trough). Immediately after the saphenous bleed, mice were dosed with the appropriate drug regimen and sacrificed 1 h post-treatment (peak), at which time blood was collected by cardiac puncture and amniotic fluid was collected by dissecting the uterus, puncturing the amniotic sac, and draining the amniotic fluid into a sterile dish. Amniotic fluid was pooled for the entire litter. Samples from 2 dams per arm were analyzed for drug levels.
BIC and CAB levels in plasma and amniotic fluid were determined using a validated, simultaneous assay using high-performance liquid chromatography coupled with tandem mass spectrometry (HPLC-MSMS). Briefly, 50 μL of plasma or amniotic fluid was spiked with internal standard (ritonavir-d6) followed by protein precipitation with acetonitrile and filtration. Filtrates were diluted 1:9 with ammonium acetate buffer (10 mM) and analyzed by the HPLC-MSMS system, consisting of a Shimadzu Nexera XR high-performance liquid chromatograph (Shimadzu, Columbia, MD, USA) coupled with a SCIEX API 4500 QqQ mass spectrometer (SCIEX, Concord, ON, Canada). Chromatographic separation by Mobile Phase A (10% methanol, 5% 50 mM ammonium acetate, 85% 0.25% acetic acid pH 3.6 ± 0.2) and Mobile Phase B (90% methanol, 5% 50 mM ammonium acetate, 5% 0.25% acetic acid pH 6.6 ± 0.2) was performed under linear gradient conditions (flow rate 0.7 mL/min) on a reverse-phase Zorbax XDB-C18 column (Agilent Technologies, Santa Clara, CA, USA) maintained at 40 °C. […] HPLC-MSMS data were acquired using Analyst (v 1.6.3, SCIEX, Concord, ON, Canada) and analyzed with MultiQuant software (v 3.0.3, SCIEX, Concord, ON, Canada). […] No peaks were detected in blank mouse plasma at the retention time with the specific ion settings for each compound. […] Positive controls spiked in-house and prepared by an external laboratory during a sample exchange program were included in all runs.

[3] = Amniotic fluid drug concentration in mouse pregnancy model (HPLC-MSMS); format: in vivo, C57BL/6J mice; settings: pregnant mice; for Kp at 1 h / concentration at 1 h: female, C57BL/6J, mouse, oral; for Kp at 1 h: amniotic fluid / maternal plasma; for concentration at 1 h: amniotic fluid
Description: as §1, with “The dose of TDF/FTC was kept constant across the different dosages of BIC and CAB.” left out
Briefly, 50 μL of plasma or amniotic fluid was spiked with internal standard (ritonavir-d6) followed by protein precipitation with acetonitrile and filtration. Filtrates were diluted 1:9 with ammonium acetate buffer (10 mM) and analyzed by the HPLC-MSMS system, consisting of a Shimadzu Nexera XR high-performance liquid chromatograph (Shimadzu, Columbia, MD, USA) coupled with a SCIEX API 4500 QqQ mass spectrometer (SCIEX, Concord, ON, Canada). Chromatographic separation by Mobile Phase A (10% methanol, 5% 50 mM ammonium acetate, 85% 0.25% acetic acid pH 3.6 ± 0.2) and Mobile Phase B (90% methanol, 5% 50 mM ammonium acetate, 5% 0.25% acetic acid pH 6.6 ± 0.2) was performed under linear gradient conditions (flow rate 0.7 mL/min) on a reverse-phase Zorbax XDB-C18 column (Agilent Technologies, Santa Clara, CA, USA) maintained at 40 °C. […] HPLC-MSMS data were acquired using Analyst (v 1.6.3, SCIEX, Concord, ON, Canada) and analyzed with MultiQuant software (v 3.0.3, SCIEX, Concord, ON, Canada). […] Positive controls spiked in-house and prepared by an external laboratory during a sample exchange program were included in all runs.

pregnant rats = settings: cited from earlier work
[4] = cited from earlier work
[5] = ex-vivo dually perfused human cotyledon; cited from earlier work
[6] = CAB 0.5 mg/kg (1×) oral gavage once daily GD11.5-GD15.5 with TDF 50 mg/kg + FTC 33.3 mg/kg
[7] = CAB 1.5 mg/kg (3×) oral gavage once daily GD11.5-GD15.5 with TDF 50 mg/kg + FTC 33.3 mg/kg
[8] = CAB 5 mg/kg (10×) oral gavage once daily GD11.5-GD15.5 with TDF 50 mg/kg + FTC 33.3 mg/kg
[9] = CAB 5 mg/kg (10×) oral gavage once daily GD11.5-GD15.5 with TDF 50 mg/kg + FTC 33.3 mg/kg, mean (SD), n=2
[10] = of 13 pregnant women living with HIV (4 oral CAB, 9 LA CAB)

Structure (SMILES): C[C@H]1CO[C@@H]2Cn3cc(C(=O)NCc4ccc(F)cc4F)c(=O)c(O)c3C(=O)N12 [CAB, cabotegravir]
- Efficacy against intrarectal SHIV [1]: protective efficacy
- Efficacy against repeated high-dose intravaginal SHIV [1]: protective efficacy
- concentration at 24 h [2, 6]: 260 ng/mL
- concentration at 24 h [2, 7]: 480 ng/mL
- concentration at 24 h [2, 8]: ~1300 ng/mL
- Cmax at 1 h [2, 6]: 913 ng/mL
- Cmax at 1 h [2, 7]: 1270 ng/mL
- Cmax at 1 h [2, 8]: 3580 ng/mL
- Plasma Concentration 24 h (Cmin) [2, 8]: 1306 (402) ng/mL
- Kp at 1 h ([3]; 1× to 10× CAB, 1 h after dosing, read-out: Ratio of drug in the amniotic fluid to that in maternal plasma): 0.034 to 0.055
- Kp at 1 h ([3]; CAB 0.5 mg/kg (1×) oral gavage once daily GD11.5-GD15.5 with TDF 50 mg/kg + FTC 33.3 mg/kg, mean (SD), n=2, read-out: Amniotic: Maternal Plasma Ratio 1 h): 0.05
- Kp at 1 h ([3]; CAB 1.5 mg/kg (3×) oral gavage once daily GD11.5-GD15.5 with TDF 50 mg/kg + FTC 33.3 mg/kg, mean (SD), n=2, read-out: Amniotic: Maternal Plasma Ratio 1 h): 0.055
- Kp at 1 h ([3]; CAB 5 mg/kg (10×) oral gavage once daily GD11.5-GD15.5 with TDF 50 mg/kg + FTC 33.3 mg/kg, mean (SD), n=2, read-out: Amniotic: Maternal Plasma Ratio 1 h): 0.034
- concentration at 1 h ([3]; CAB 0.5 mg/kg (1×) oral gavage once daily GD11.5-GD15.5 with TDF 50 mg/kg + FTC 33.3 mg/kg, mean (SD), n=2): 44.9 ng/mL
- concentration at 1 h ([3]; CAB 1.5 mg/kg (3×) oral gavage once daily GD11.5-GD15.5 with TDF 50 mg/kg + FTC 33.3 mg/kg, mean (SD), n=2): 59.9 ng/mL
- concentration at 1 h [3, 9]: 112 ng/mL
- Amniotic Fluid 1 h [3, 9]: 112.4 (33.6) ng/mL
- Reproductive toxicity findings (pregnant rats; CAB orally 1000 mg/kg/day, gestational day 6 to lactation day 21): delayed onset of parturition, increased number of stillbirths, and increased number of neonatal deaths at lactation day 4
- CAB exposure relative to the recommended human dose (pregnant rats; rats, 1000 mg/kg/day): 28 times
- Birth defects ([4]; 13 pregnant women living with HIV (4 oral CAB, 9 LA CAB)): No cases of birth defects were reported
- Women with live births [4, 10]: Four
- Women with miscarriage within the first nine weeks of gestation [4, 10]: four
- Concentration in the fetal compartment [5]: 48 ng/mL
- Concentration in the maternal compartment [5]: 550 ng/mL
- Maternal-to-fetal ratio [5]: 10%
- Placental transfer [5]: low placental transfer
